Values of other authors, collected in patent publication US20150080385A1, “OPHTHALMIC PHARMACEUTICAL COMPOSITION CONTAINING A CARBONIC ANHYDRASE INHIBITOR AND METHOD FOR THE PREPARATION THEREOF” (PHARMATHEN S.A., priority 2012, published 2015).

In the case of `CCN[C@H]1CN(CCCOC)S(=O)(=O)c2sc(S(N)(=O)=O)cc21` [Brinzolamide, (R)-4-ethylamino-3,4-dihydro-2-(3-methoxy) propyl-2H-thieno[3,2-e]-1,2-thiazine-6-sulfonamide 1, 1 dioxide], the “Solubility in alcohol and methanol” value (alcohol and methanol) is listed as “slightly soluble” and the Solubility in water (water) is listed as “insoluble”.
